Source: patent US20040214799A1, “Cancerous metastasis inhibitors containing carbacyclic phosphatidic acid derivatives” (priority 2001, published 2004)
Where “and” joins values, the source holds several entries; their conditions need not be identical. Identical values can stand only once.

Assays:
[1] = system: MM1 cells; details: Int. J. Cancer 81, 918-922 (1999), cited from earlier work
[2] = system: Mouse malignant melanoma B16-F0; assay: B16 melanoma hematogenous lung metastasis model; type: in vivo; details: 0.008 mg/body i.v. On Metastatic nodules, Abdominal cavity Adipose tissue: key: −: Absent; +: Present. On Metastatic nodules, Abdominal cavity Adrenal gland: key: −: Absent; +: Present. On Metastatic nodules, Abdominal cavity Diaphragm: key: −: Absent; +: Present. On Metastatic nodules, Abdominal cavity Kidney: key: −: Absent; +: Present. On Metastatic nodules, Abdominal cavity Ovary: key: −: Absent; +: Present. On Metastatic nodules, Abdominal cavity Spleen: key: −: Absent; +: Present. On Metastatic nodules, Thoracic cavity: key: −: Absent; +: Present. On Metastatic nodules, Tissue around glandual clitoris: key: −: Absent; +: Present.
Description: cPA-19 and cPA-20 were used as test substances. 0.1 w/v % BSA/PBS which was prepared by dissolving Albumin, Bovine [essentially Fatty Acid Free] (BSA, Lot No. 89H7604, Sigma chemical company) in Ca^2+ and Mg^2+ free PBS (pH 7.2), was used as a medium After preparation, the solution was sterilized by filtration using a filter (0.22 μm, Millipore). Preparation was performed when used. cPA-5 was used as a positive control substance.
A medium was added in a volume required for a test substance or a positive control substance. Dissolution was performed by ultrasonication, thereby preparing a 0.16 mg/mL solution. The 0.16 mg/mL solution containing a test substance was diluted with a medium, thereby preparing 0.08 and 0.02 mg/mL solutions. All mixtures were prepared when used.
Mice were purchased from CHARLES RIVER JAPAN. INC. The line employed herein was C57BL/6NCrj (sexuality: female). The number of animals kept in stock was 60, and the age of these animals when kept in stock was 4 weeks. […] The environmental conditions for the test system were as follows:
Mouse malignant melanoma B16-F0 was used as a tumor cell. The cell was purchased from Dainippon Pharmaceutical Co., Ltd.
Dulbecco's Modified Eagle's Media containing 10% feral bovine serum and kanamycin were used for culture. […] A medium was added to stop the action of trypsin while pipetting, thereby preparing a cell suspension. The suspension was diluted by one-tenth with a medium for culturing, followed by subculturing until it reached a volume sufficient for grafting.
A cell suspension was prepared by the same technique as the subculture method. Specifically, the cells were washed with a Ca^2+ and Mg^2+ free phosphate buffer [PBS(−)], and then harvested. The harvested cells were suspended in a 10 mL of PBS(−), thereby preparing a cell suspension. The number of cells in the cell suspension was measured to obtain the total cell number. 50 μL of the cell suspension, 100 μL of 0.4% trypan blue liquid and 100 μL of PBS(−) were mixed, and then viable count was measured. The survival rate of the cells was calculated from the viable count and total cell number.
Based on the body weight on the day of the administration of the test substance, mice were grouped into 8 test groups according to the stratified continuous randomization method as shown in Table 2 below.
The mixture was administered via the caudal vein. The number of grafted cells was 5×10^5 cells/body. The dose of the test substance was 0.001, 0.004 or 0.008 mg/body, and the dose of the positive control substance was 0.008 mg/body.
On day 14 after the administration of the test substance, blood was collected from the posterior portion of the abdominal vena cava under isoflurane anesthesia. After the mice were sacrificed by blood-letting, the presence or absence of intrapleural and intraperitoneal metastatic nodules was confirmed. Lungs were extracted, and then fixed with a 10% neutral buffered formalin solution. The number of nodules resulting from lung metastasis was measured under a stereoscopic microscope (magnification: 10 times).
After the measurement of the number of nodules resulting from lung metastasis, samples were paraffin-embedded, and then thin sections were prepared. Hematoxylin eosinic-stained samples were prepared from these sections. The number of metastatic lesions in the certain portions of the left lobe and the posterior lobe was measured, and then the lesions were sorted by size. On the basis of the diameter (0.65 mm) of an object lens (×40), metastatic lesions with major diameters of less than 0.65 mm were classified as having a small size, and those with major diameters of between 0.65 mm or more and less than 1.30 mm were classified as having a large size. Furthermore, the degree of invasion of lymphocytes into metastatic lesions was confirmed qualitatively.
The representative value of each test group was denoted as mean±standard deviation (mean±S.D.). Differences in mean values were examined as follows.

[3] = system: MM1 cells; details: reported by Mukai et al., Int. J. Cancer 81, 918-922 (1999); cited from earlier work
[4] = system: HT-1080 cells; details: Mukai et al., Int. J. Cancer 81, 918-922 (1999); cited from earlier work
[5] = system: MM1 cells; details: reported by Mukai et al., Int. J. Cancer 81, 918-922 (1999); cited from earlier work; remark: listed apart in the source
[6] = system: MM1 cells; assay: Measurement of intracellular cAMP in MM1 cells; type: cell-based, rat; details: 25 μM cPA or 10 μM Forskolin, pretreated with 1 mM IBMX
Description: After a certain time period, 10% ice-cooled TCA was added to stop the reaction. The centrifuged supernatant was washed 4 times with water-saturated diethylether to remove TCA, and then placed under nitrogen gas flow at 60° C. to remove the solvent completely. cAMP in the resultant sample was measured using a cyclic AMP [^3H] assay system (Amersham).

[7] = autopsy day 14, individual animals

## CCCCCCCCCCCCCCCC(=O)OC[C@@H]1COP(=O)(O)O1 [cPA-5, Pal-cPA, reference compound]
[1]; reported by Mukai et al.
  invasion suppressing action on LPA-induced invasion (in words): strongly suppress
[1]; studied by Mukai et al.
  suppressed LPA-induced invasion by: approximately 85%
[2]
  action of decreasing the number of metastatic lesions (in words): no action of decreasing the number of metastatic lesions was observed
  metastasis / number of metastatic nodules in the lungs versus medium group (in words): a significant decrease was observed in the number of metastatic nodules
[2]; animals with metastatic lesions
  invasion of lymphocytes into metastatic lesions observed in cases: 2 out of 5
[2]; [7]
  Metastatic nodules, Abdominal cavity Adipose tissue: −
  Metastatic nodules, Abdominal cavity Adrenal gland: −
  Metastatic nodules, Abdominal cavity Diaphragm: −
  Metastatic nodules, Abdominal cavity Kidney: −
  Metastatic nodules, Abdominal cavity Ovary: −
  Metastatic nodules, Abdominal cavity Spleen: + (3×) and − (3×)
  Metastatic nodules, Thoracic cavity: −
  Metastatic nodules, Tissue around glandual clitoris: −
[2]; autopsy, 6 mice
  cases with metastatic nodules in the spleen: 3 case
  metastatic nodules in the thoracic cavity: no metastatic nodules were observed
[2]; day 14, N 6
  Number of lung tumor nodules, Range (mininum-maximum): 5-38
  Number of mice having lung tumor nodules: 6
[2]; day 14, mean ± S.D., N 6
  Number of lung tumor nodules: 21 ± 13$
[2]; lung histopathology, N 6
  Number of mice having metastatic lesions: 5
[2]; lung histopathology, individual animals
  Findings: Invasion of lymphocytes into melanoma metastatic lesion: − (3×) and ++ and +
[2]; major diameter 0.65 mm ≦ and <1.3 mm, mean ± S.D.
  Number of metastatic lesions per section, Large size: 0.8 ± 0.8
[2]; major diameter <0.65 mm, left lobe and posterior lobe, mean ± S.D.
  Number of metastatic lesions per section, Small size: 1.2 ± 0.8
[2]; mean ± S.D.
  Number of metastatic lesions per section, Total: 2.0 ± 1.3
[3]
  intracellular cAMP concentration of MM1 cells (in words): leads an increase of intracellular cAMP concentration
[4]
  suppression of serum/LPA-independent invasion of HT-1080 cells (in words): suppressed
[5]
  suppression of FBS-induced invasion (in words): strongly suppress
[6]
  change of intracellular cAMP concentration (in words): could not be confirmed
